Assay results as given in patent US10233186B2, “Inhibitors of activin receptor-like kinase” (BLUEPRINT MEDICINES CORPORATION, priority 2016, dated 2019).

Assays:
[1] = molecular target: T1, ALK2 R206H (GST-tagged mutant ALK2) (Homo sapiens, UniProt Q04771, R206H); assay: ALK binding assay (LANTHASCREEN TR-FRET competitive binding, displacement of Kinase Tracer 178); details: ALK2 R206H, LANTHASCREEN TR-FRET competitive binding; read-out: Binding Assay (IC50)
T1 construct: purchased Carna Bioscience or ThermoFisher 09-148 or PV6232
T1 sequence (Q04771 21-509 R206H): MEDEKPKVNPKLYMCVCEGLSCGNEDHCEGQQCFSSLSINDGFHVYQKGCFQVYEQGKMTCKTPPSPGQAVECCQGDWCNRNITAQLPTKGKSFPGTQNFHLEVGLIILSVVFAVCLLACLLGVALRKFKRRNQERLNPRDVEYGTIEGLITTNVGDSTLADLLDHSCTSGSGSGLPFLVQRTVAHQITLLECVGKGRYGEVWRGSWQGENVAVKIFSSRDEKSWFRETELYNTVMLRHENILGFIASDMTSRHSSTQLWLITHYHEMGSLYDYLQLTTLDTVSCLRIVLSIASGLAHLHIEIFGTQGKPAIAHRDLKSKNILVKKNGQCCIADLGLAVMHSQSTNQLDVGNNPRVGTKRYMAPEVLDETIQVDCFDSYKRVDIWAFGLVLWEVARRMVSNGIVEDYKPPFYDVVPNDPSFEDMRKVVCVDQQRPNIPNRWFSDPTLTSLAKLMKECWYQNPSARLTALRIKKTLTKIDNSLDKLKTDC

[2] = molecular target: T2, human ALK2 R206H (Homo sapiens, UniProt Q04771, R206H); assay: Cell-based ALK2-R206H cell activity assay (Smad1-Ser463/Ser465 phosphorylation by AlphaLISA in HEK293-ALK2-R206H cells); details: read-out: Cell Line (Cell Assay IC50)
T2 construct: expressed in transfected cells; host or cells: HEK293 (ATCC CRL1573), lentivirus transduction, blasticidin selection
T2 sequence (Q04771 21-509 R206H): T1 sequence (Q04771 21-509 R206H)
Procedure: A HEK293 (ATCC, Cat^# CRL1573) based stable cell line expressing human ALK2 R206H cDNA (synthesized by GeneScript, Piscataway, N.J.) and a FLAG tag at the C-terminus was generated by lentivirus transduction and subsequent blasticidin (Life Technologies, Cat^#-A1113902) selection at 10 μg/ml for >2 wks. This cell line was named HEK293-ALK2-R206H.
Test compounds were first diluted to 4 mM or 0.4 mM and then serially diluted 3-fold into 10 different concentrations using DMSO. […] Two μl of the diluted compounds were then dispensed into the HEK293-ALK2-R206H cell-containing wells of the microplates in duplicates. In this way, each compound was tested in 10 doses (3-fold serial dilution with the top concentration being 10 μM or 1 μM). Liquid handling was achieved using a Bravo Automated Liquid Handling Platform (Agilent Technologies). DMSO without compound was used as a negative control. The positive control was 1 μM LDN193189, a known bone morphogenetic protein (BMP inhibitor).
The 10-point dose response curve was used to calculate the IC50 values.
Blank values in the table indicate that the particular compound was not tested in this assay.

Structure (SMILES): CCN1CCN(c2ccc(-c3cc4c(N5CCN(C(=O)C6CC6)CC5)ccnn4c3)cn2)CC1 [Compound 221]
- IC50 [1]: < 10 nM
- IC50 [2]: 100 to 500 nM

Structure (SMILES): CCN1CCN(c2ccc(-c3cc4c(N5CCN(C(=O)C6CC6)CC5)ccnn4c3)nc2)CC1 [Compound 222]
- IC50 [1]: < 10 nM
- IC50 [2]: < 100 nM

Structure (SMILES): CCN1CCN(c2ccc(-c3cc4c(N5CCN(C(=O)C(C)C)CC5)ccnn4c3)cc2)CC1 [Compound 223]
- IC50 [1]: 10 to 50 nM
- IC50 [2]: 100 to 500 nM

Structure (SMILES): CCNC(=O)N1CCN(c2ccnn3cc(-c4ccc([C@@H]5CCN(C(C)C)C5)cc4)cc23)CC1 [Compound 224]
- IC50 [1]: < 10 nM
- IC50 [2]: < 100 nM

Structure (SMILES): CCNC(=O)N1CCN(c2ccnn3cc(-c4ccc([C@H]5CCN(C(C)C)C5)cc4)cc23)CC1 [Compound 225]
- IC50 [1]: < 10 nM
- IC50 [2]: < 100 nM

Structure (SMILES): CCN1CC[C@H](c2ccc(-c3cc4c(N5CCN(C(=O)[C@H]6C[C@H]6F)CC5)ccnn4c3)cc2)C1 [Compound 226]
- IC50 [1]: < 10 nM
- IC50 [2]: < 100 nM

Structure (SMILES): CCN1CC[C@@H](c2ccc(-c3cc4c(N5CCN(C(=O)[C@H]6C[C@H]6F)CC5)ccnn4c3)cc2)C1 [Compound 227]
- IC50 [1]: < 10 nM
- IC50 [2]: < 100 nM

Structure (SMILES): CCN1CC(F)C(c2ccc(-c3cc4c(N5CCN(C(=O)C6CC6)CC5)ccnn4c3)cc2)C1 (stereo not drawn) [Compound 228]
- IC50 [1]: < 10 nM
- IC50 [2]: < 100 nM

Structure (SMILES): O=C(C1CCC1)N1CCN(c2ccnn3cc(-c4ccc(C5(F)CCCNC5)cc4)cc23)CC1 (stereo not drawn) [Compound 229]
- IC50 [1]: < 10 nM
- IC50 [2]: < 100 nM

Structure (SMILES): CCOC(=O)N1CCN(c2ccnn3cc(-c4ccc(C5CCN(CC)CC5)cc4)cc23)CC1 [Compound 230, ethyl 4-(6-(4-(1-ethylpiperidin-4-yl)phenyl)pyrrolo[1,2-b]pyridazin-4-yl)piperazine-1-carboxylate]
- IC50 [1]: < 10 nM
- IC50 [2]: < 100 nM

Structure (SMILES): CCOC(=O)N1CCN(c2ccnn3cc(-c4ccc([C@H]5CCN(C(C)C)C5)cc4)cc23)CC1 [Compound 231]
- IC50 [1]: < 10 nM
- IC50 [2]: < 100 nM

Structure (SMILES): COC(=O)N1CCN(c2ccnn3cc(-c4ccc(C5CCN(C(C)C)CC5)cc4)cc23)CC1 [Compound 232]
- IC50 [1]: < 10 nM
- IC50 [2]: 100 to 500 nM

Structure (SMILES): O=C(C1CC(F)C1)N1CCN(c2ccnn3cc(-c4ccc(N5CCNCC5)cc4)cc23)CC1 (stereo not drawn) [Compound 234]
- IC50 [1]: < 10 nM
- IC50 [2]: < 100 nM

Structure (SMILES): CCNC(=O)N1CCN(c2ccnn3cc(-c4ccc(C5(O)CN(C(C)C)C5)cc4)cc23)CC1 [Compound 235]
- IC50 [1]: < 10 nM
- IC50 [2]: 100 to 500 nM

Structure (SMILES): CCOC(=O)N1CCN(c2ccnn3cc(-c4ccc(OC5CN(C(C)C)C5)cc4)cc23)CC1 [Compound 236]
- IC50 [1]: < 10 nM
- IC50 [2]: 100 to 500 nM

Structure (SMILES): [2H]C([2H])([2H])C([2H])([2H])N1CCN(c2ccc(-c3cc4c(N5CCN(C(=O)C6CC6)CC5)ccnn4c3)cc2)CC1 [Compound 237]
- IC50 [1]: < 10 nM
- IC50 [2]: < 100 nM

Structure (SMILES): O=C(C1CC1)N1CCN(c2ccnn3cc(-c4ccc(C5CCNCC5(F)F)cc4)cc23)CC1 (stereo not drawn) [Compound 238]
- IC50 [1]: < 10 nM
- IC50 [2]: 100 to 500 nM

Structure (SMILES): [2H]C([2H])([2H])C([2H])([2H])N1CCN(c2ccc(-c3cc4c(N5CCN(C(=O)NCC)CC5)ccnn4c3)cc2)CC1 [Compound 240]
- IC50 [1]: < 10 nM
- IC50 [2]: < 100 nM

Structure (SMILES): CCN1CC2(C1)CN(c1ccc(-c3cc4c(N5CCN(C(=O)C6CC6)CC5)ccnn4c3)cc1)C2 [Compound 241]
- IC50 [1]: < 10 nM
- IC50 [2]: < 100 nM

Structure (SMILES): CCN1C[C@@H]2C[C@H]1CN2c1ccc(-c2cc3c(N4CCN(C(=O)C5CC5)CC4)ccnn3c2)cc1 [Compound 242]
- IC50 [1]: < 10 nM
- IC50 [2]: 100 to 500 nM

Structure (SMILES): O=C(C1CC1)N1CCN(c2ccnn3cc(-c4ccc(N5CCN6CCCC6C5)cc4)cc23)CC1 (stereo not drawn) [Compound 243]
- IC50 [1]: < 10 nM
- IC50 [2]: < 100 nM

Structure (SMILES): CC(=O)N1CCC(c2ccc(-c3cc4c(N5CCN(C(=O)C6CC6)CC5)ccnn4c3)cc2)CC1 [Compound 245]
- IC50 [1]: 10 to 50 nM
- IC50 [2]: 100 to 500 nM

Structure (SMILES): CC(C)N1CCC(c2ccc(-c3cc4c(N5CCN(C(=O)C6CC6)CC5)ccnn4c3)cc2)CC1 [Compound 246]
- IC50 [1]: < 10 nM
- IC50 [2]: < 100 nM

Structure (SMILES): CC(C)N1CCC[C@H](c2ccc(-c3cc4c(N5CCN(C(=O)C6CC6)CC5)ccnn4c3)cc2)C1 [Compound 247]
- IC50 [1]: < 10 nM
- IC50 [2]: < 100 nM
